Patent US20220323406A1, “METHODS AND COMPOSITIONS FOR DIFFERENTIATING STEM CELLS” (Massachusetts Institute of Technology, priority 2019, published 2022)
Counter-ions that a name gives are not always drawn.

Assays:
[1] = system: ENR+CD organoids (ISC to Paneth cell differentiation); assay: Primary screen: CCh-stimulated lysozyme secretion LYZ.S, 2.5-D 384-well ENR+CD organoid differentiation; type: cell-based, mouse; details: primary screen
Description: (§1) High-throughput screening.

[2] = system: ENR+CD organoids (ISC to Paneth cell differentiation); assay: Primary screen: basal (non-stimulated) lysozyme secretion LYZ.NS, 2.5-D 384-well ENR+CD organoid differentiation; type: cell-based, mouse; details: primary screen; for Z.LYZ.NS: standard z score
Description: as §1

ENR+CD organoids = assay: Primary screen: ATP (CellTiter-Glo 3D, CTG) cell number/viability, 2.5-D 384-well ENR+CD organoids; details: primary screen; for Z.CTG: standard z score;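 as to all read-outs here: compounds given at plating and again on day 3 over a 6-day differentiation from ENR+CV stem-cell-enriched precursors, ATP measured on day 6, plate median as control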
[3] = dose 0.08 uM, FC relative to plate median
[4] = dose 0.40 uM, FC relative to plate median
[5] = dose 2.00 uM, FC relative to plate median
[6] = dose 10.00 uM, FC relative to plate median

Structure (SMILES) | Dose.FC.LYZ.S ([1]; dose 0.08 uM) | Dose.FC.LYZ.S ([1]; dose 0.40 uM) | Dose.FC.LYZ.S ([1]; dose 2.00 uM) | Dose.FC.LYZ.S ([1]; dose 10.00 uM) | Dose.FC.LYZ.NS ([2]; dose 0.08 uM) | Z.LYZ.NS (standard z score) ([2]; dose 0.08 uM) | Dose.FC.LYZ.NS ([2]; dose 0.40 uM) | Z.LYZ.NS (standard z score) ([2]; dose 0.40 uM) | Dose.FC.LYZ.NS ([2]; dose 2.00 uM) | Z.LYZ.NS (standard z score) ([2]; dose 2.00 uM) | Dose.FC.LYZ.NS ([2]; dose 10.00 uM) | Z.LYZ.NS (standard z score) ([2]; dose 10.00 uM) | Dose.FC.CTG (ENR+CD organoids; dose 0.08 uM) | Z.CTG (standard z score) (ENR+CD organoids; dose 0.08 uM) | Dose.FC.CTG (ENR+CD organoids; dose 0.40 uM) | Z.CTG (standard z score) (ENR+CD organoids; dose 0.40 uM) | Dose.FC.CTG (ENR+CD organoids; dose 2.00 uM) | Z.CTG (standard z score) (ENR+CD organoids; dose 2.00 uM) | Dose.FC.CTG (ENR+CD organoids; dose 10.00 uM) | Z.CTG (standard z score) (ENR+CD organoids; dose 10.00 uM) | further results
CCN1CCN(c2ccc(Nc3cc(N(C)C(=O)Nc4c(Cl)c(OC)cc(OC)c4Cl)ncn3)cc2)CC1 [BGJ398 (NVP-BGJ398)] | −0.036 log2 fold change | 0.002 log2 fold change | −0.062 log2 fold change | −0.350 log2 fold change | −0.002 log2 fold change | −0.017 | −0.060 log2 fold change | −0.520 | −0.052 log2 fold change | −0.450 | −0.269 log2 fold change | −2.345 | −0.054 log2 fold change | −0.128 | 0.026 log2 fold change | 0.063 | −0.185 log2 fold change | −0.442 | −1.500 log2 fold change | −3.583 | –
Cl.N[C@@H]1C[C@H]1c1ccccc1 (racemic) [Tranylcypromine (2-PCPA) HCl] | 0.050 log2 fold change | −0.037 log2 fold change | 0.036 log2 fold change | −0.096 log2 fold change | 0.033 log2 fold change | 0.285 | −0.049 log2 fold change | −0.426 | 0.049 log2 fold change | 0.423 | −0.045 log2 fold change | −0.389 | −0.064 log2 fold change | −0.153 | 0.062 log2 fold change | 0.148 | 0.053 log2 fold change | 0.128 | −0.533 log2 fold change | −1.274 | –
CC#CCn1c(N2CCC[C@@H](N)C2)nc2c1c(=O)n(Cc1nc(C)c3ccccc3n1)c(=O)n2C [Linagliptin] | – | – | – | – | – | 1.809 | – | 0.478 | – | 0.182 | – | 0.695 | – | – | – | – | – | – | – | – | Dose.FC.LYZ.S (log2 fold change) ([1]; dose 0.08 uM): 0.140; Dose.FC.LYZ.S (log2 fold change) ([1]; dose 0.40 uM): 0.047; Dose.FC.LYZ.S (log2 fold change) ([1]; dose 2.00 uM): −0.032; Dose.FC.LYZ.S (log2 fold change) ([1]; dose 10.00 uM): 0.050; Dose.FC.LYZ.NS (log2 fold change) ([2]; dose 0.08 uM): 0.208; Dose.FC.LYZ.NS (log2 fold change) ([2]; dose 0.40 uM): 0.055; Dose.FC.LYZ.NS (log2 fold change) ([2]; dose 2.00 uM): 0.021; Dose.FC.LYZ.NS (log2 fold change) ([2]; dose 10.00 uM): 0.080; Dose.FC.CTG (log2 fold change) (ENR+CD organoids; dose 0.08 uM): 0.163; Dose.FC.CTG (log2 fold change) (ENR+CD organoids; dose 0.40 uM): 0.209; Dose.FC.CTG (log2 fold change) (ENR+CD organoids; dose 2.00 uM): 0.023; Dose.FC.CTG (log2 fold change) (ENR+CD organoids; dose 10.00 uM): −0.011
Clc1ccccc1CN1CCc2sccc2C1 [Ticlopidine HCl] | 0.052 log2 fold change | 0.072 log2 fold change | −0.022 log2 fold change | 0.076 log2 fold change | 0.043 log2 fold change | 0.373 | 0.010 log2 fold change | 0.084 | −0.002 log2 fold change | −0.018 | −0.035 log2 fold change | −0.308 | −0.118 log2 fold change | – | −0.041 log2 fold change | – | −0.234 log2 fold change | – | −0.005 log2 fold change | – | –
O=C(c1cncc(Br)c1)N1CCC(N2CCCC2)CC1 [UNC669] | 0.047 log2 fold change | −0.029 log2 fold change | 0.025 log2 fold change | 0.002 log2 fold change | 0.066 log2 fold change | 0.578 | −0.006 log2 fold change | −0.048 | 0.070 log2 fold change | 0.606 | 0.029 log2 fold change | 0.249 | −0.095 log2 fold change | −0.226 | 0.096 log2 fold change | 0.228 | −0.235 log2 fold change | −0.561 | 0.073 log2 fold change | 0.174 | –
Clc1ccc(N/N=C(\c2ccccc2)c2ccccn2)nc1 [JIB-04] | – | – | – | – | – | 1.549 | – | 0.264 | – | 0.048 | – | −1.330 | – | 0.607 | – | 0.258 | – | 0.219 | – | −0.433 | Dose.FC.LYZ.S (log2 fold change) ([1]; dose 0.08 uM): 0.203; Dose.FC.LYZ.S (log2 fold change) ([1]; dose 0.40 uM): 0.084; Dose.FC.LYZ.S (log2 fold change) ([1]; dose 2.00 uM): −0.056; Dose.FC.LYZ.S (log2 fold change) ([1]; dose 10.00 uM): −0.085; Dose.FC.LYZ.NS (log2 fold change) ([2]; dose 0.08 uM): 0.178; Dose.FC.LYZ.NS (log2 fold change) ([2]; dose 0.40 uM): 0.030; Dose.FC.LYZ.NS (log2 fold change) ([2]; dose 2.00 uM): 0.006; Dose.FC.LYZ.NS (log2 fold change) ([2]; dose 10.00 uM): −0.153; Dose.FC.CTG (log2 fold change) (ENR+CD organoids; dose 0.08 uM): 0.254; Dose.FC.CTG (log2 fold change) (ENR+CD organoids; dose 0.40 uM): 0.108; Dose.FC.CTG (log2 fold change) (ENR+CD organoids; dose 2.00 uM): 0.092; Dose.FC.CTG (log2 fold change) (ENR+CD organoids; dose 10.00 uM): −0.181
CC(C)[C@H](O)C(=O)N[C@@H](C)C(=O)N[C@@H]1C(=O)N(C)CCc2ccccc21 [Semagacestat (LY450139)] | – | – | – | – | – | – | – | – | – | – | – | – | – | – | – | – | – | – | – | – | Dose.FC.LYZ.S [1, 3]: −0.014 log2 fold change; Dose.FC.LYZ.S [1, 4]: −0.006 log2 fold change; Dose.FC.LYZ.S [1, 5]: −0.081 log2 fold change; Dose.FC.LYZ.S [1, 6]: −0.162 log2 fold change; Dose.FC.LYZ.NS [2, 3]: 0.017 log2 fold change; Z.LYZ.NS ([2]; dose 0.08 uM): 0.151; Dose.FC.LYZ.NS [2, 4]: −0.021 log2 fold change; Z.LYZ.NS ([2]; dose 0.40 uM): −0.181; Dose.FC.LYZ.NS [2, 5]: −0.081 log2 fold change; Z.LYZ.NS ([2]; dose 2.00 uM): −0.704; Dose.FC.LYZ.NS [2, 6]: −0.108 log2 fold change; Z.LYZ.NS ([2]; dose 10.00 uM): −0.942; Dose.FC.CTG (ENR+CD organoids; [3]): 0.141 log2 fold change; Z.CTG (ENR+CD organoids; dose 0.08 uM): 0.338; Dose.FC.CTG (ENR+CD organoids; [4]): −0.207 log2 fold change; Z.CTG (ENR+CD organoids; dose 0.40 uM): −0.494; Dose.FC.CTG (ENR+CD organoids; [5]): −0.128 log2 fold change; Z.CTG (ENR+CD organoids; dose 2.00 uM): −0.306; Dose.FC.CTG (ENR+CD organoids; [6]): −0.856 log2 fold change; Z.CTG (ENR+CD organoids; dose 10.00 uM): −2.045
Cl.NC(=O)c1cnc(N[C@@H]2CCCC[C@@H]2N)nc1Nc1cccc(-n2nccn2)c1 [PRT062607 (P505-15, BIIB057) HCl] | – | – | – | – | – | – | – | – | – | – | – | – | – | – | – | – | – | – | – | – | Dose.FC.LYZ.S [1, 3]: −0.033 log2 fold change; Dose.FC.LYZ.S [1, 4]: 0.122 log2 fold change; Dose.FC.LYZ.S [1, 5]: −0.123 log2 fold change; Dose.FC.LYZ.S [1, 6]: −0.298 log2 fold change; Dose.FC.LYZ.NS [2, 3]: 0.004 log2 fold change; Z.LYZ.NS ([2]; dose 0.08 uM): 0.037; Dose.FC.LYZ.NS [2, 4]: 0.022 log2 fold change; Z.LYZ.NS ([2]; dose 0.40 uM): 0.194; Dose.FC.LYZ.NS [2, 5]: −0.032 log2 fold change; Z.LYZ.NS ([2]; dose 2.00 uM): −0.280; Dose.FC.LYZ.NS [2, 6]: −0.211 log2 fold change; Z.LYZ.NS ([2]; dose 10.00 uM): −1.837; Dose.FC.CTG (ENR+CD organoids; [3]): −0.092 log2 fold change; Z.CTG (ENR+CD organoids; dose 0.08 uM): −0.219; Dose.FC.CTG (ENR+CD organoids; [4]): 0.080 log2 fold change; Z.CTG (ENR+CD organoids; dose 0.40 uM): 0.191; Dose.FC.CTG (ENR+CD organoids; [5]): −0.075 log2 fold change; Z.CTG (ENR+CD organoids; dose 2.00 uM): −0.179; Dose.FC.CTG (ENR+CD organoids; [6]): −0.330 log2 fold change; Z.CTG (ENR+CD organoids; dose 10.00 uM): −0.788
CCOC(=O)N1CCC(=C2c3ccc(Cl)cc3CCc3cccnc32)CC1 [Loratadine] | – | – | – | – | – | 0.093 | – | −0.005 | – | −0.938 | – | −0.881 | – | – | – | – | – | – | – | – | Dose.FC.LYZ.S (log2 fold change) ([1]; dose 0.08 uM): −0.076; Dose.FC.LYZ.S (log2 fold change) ([1]; dose 0.40 uM): 0.011; Dose.FC.LYZ.S (log2 fold change) ([1]; dose 2.00 uM): −0.148; Dose.FC.LYZ.S (log2 fold change) ([1]; dose 10.00 uM): −0.148; Dose.FC.LYZ.NS (log2 fold change) ([2]; dose 0.08 uM): 0.011; Dose.FC.LYZ.NS (log2 fold change) ([2]; dose 0.40 uM): −0.001; Dose.FC.LYZ.NS (log2 fold change) ([2]; dose 2.00 uM): −0.108; Dose.FC.LYZ.NS (log2 fold change) ([2]; dose 10.00 uM): −0.101; Dose.FC.CTG (log2 fold change) (ENR+CD organoids; dose 0.08 uM): −0.292; Dose.FC.CTG (log2 fold change) (ENR+CD organoids; dose 0.40 uM): 0.145; Dose.FC.CTG (log2 fold change) (ENR+CD organoids; dose 2.00 uM): −0.204; Dose.FC.CTG (log2 fold change) (ENR+CD organoids; dose 10.00 uM): −0.120
Cc1cc(Nc2cc(CN3CCOCC3)c3nc(C)c(Cc4ccc(Cl)cc4F)n3n2)n[nH]1 [LY2784544] | – | – | – | – | – | 1.152 | – | 0.033 | – | 0.591 | – | −2.439 | – | 0.259 | – | 0.148 | – | 0.433 | – | −1.984 | Dose.FC.LYZ.S (log2 fold change) ([1]; dose 0.08 uM): 0.123; Dose.FC.LYZ.S (log2 fold change) ([1]; dose 0.40 uM): 0.077; Dose.FC.LYZ.S (log2 fold change) ([1]; dose 2.00 uM): 0.114; Dose.FC.LYZ.S (log2 fold change) ([1]; dose 10.00 uM): −0.367; Dose.FC.LYZ.NS (log2 fold change) ([2]; dose 0.08 uM): 0.132; Dose.FC.LYZ.NS (log2 fold change) ([2]; dose 0.40 uM): 0.004; Dose.FC.LYZ.NS (log2 fold change) ([2]; dose 2.00 uM): 0.068; Dose.FC.LYZ.NS (log2 fold change) ([2]; dose 10.00 uM): −0.280; Dose.FC.CTG (log2 fold change) (ENR+CD organoids; dose 0.08 uM): 0.108; Dose.FC.CTG (log2 fold change) (ENR+CD organoids; dose 0.40 uM): 0.062; Dose.FC.CTG (log2 fold change) (ENR+CD organoids; dose 2.00 uM): 0.181; Dose.FC.CTG (log2 fold change) (ENR+CD organoids; dose 10.00 uM): −0.831
